Activity calls are given as the source filed them. No cut-off for these calls is given here.
Legend:
Rattus norvegicus [1] = assay: Inhibition of paw swelling relative to the tebufelone in rat. Value was reported as Carrageenan paw edema index; format: functional
Rattus norvegicus [2] = species on record: Rattus norvegicus; assay: Compound was tested for its analgesic activity in phenylquinone-induced abdominal constriction assay(PAC); format: functional; settings: Abdomen
Rattus norvegicus [3] = assay: Analgesic activity (50 mg/kg, sc)in phenylquinone-induced abdominal constriction assay(PAC); format: functional, Abdomen
Rattus norvegicus [4] = species on record: Rattus norvegicus; assay: Comparative activity versus Dihydrodimethylbenzofurans in the CPE assay; -, indicates inactive; format: functional, organism-based
[5] = Comparative activity versus Dihydrodimethylbenzofurans in the CPE (Carrageenan paw edema) assay; -, inactive; settings: Rattus norvegicus
Rattus norvegicus [6] = assay: Comparative activity versus Dihydrodimethylbenzofurans in the CPE (Carrageenan paw edema) assay; -, inactive; format: functional, organism-based
Rattus norvegicus [7] = assay: Compound was tested at a dose of 50 mg/kg for its antiinflammatory activity in carrageenan paw edema (CPE) assay

SMILES	CPE index (Rattus norvegicus [1])	ED50 (Rattus norvegicus [2]) [mg/kg]	also measured
COc1ccc2cc([C@H](C)C(=O)O)ccc2c1 [NAPROXEN]	1.06	1.3	Inhibition (Rattus norvegicus [3]): 54%
CC(C)(C)c1cc(-c2cn3c(n2)S(=O)(=O)C=C3)cc2c1OCC2(C)C	0.19	–	Activity (Rattus norvegicus [4]): inactive
CC(C)(C)c1cc(C(N)=O)cc2c1OCC2(C)C	0.07	–	Activity [5]: inactive
CN(C)C(=O)c1cc(C(C)(C)C)c2c(c1)C(C)(C)CO2	0.36	–	Activity (Rattus norvegicus [6]): inactive
C#CCCCC(=O)c1cc(C(C)(C)C)c(O)c(C(C)(C)C)c1 [TEBUFELONE]	–	3.7	inhibition in vivo at 50 mg/kg (Rattus norvegicus [7]): 51.1%
